# Data: patent US20250171438A1 (Agios Pharmaceuticals, Inc., priority 2022, published 2025)
# Target: T1, human PAH with the R408W mutation (Homo sapiens, UniProt P00439, R408W)
# T1 construct: expressed in transfected cells
# T1 sequence (P00439 1-452 R408W): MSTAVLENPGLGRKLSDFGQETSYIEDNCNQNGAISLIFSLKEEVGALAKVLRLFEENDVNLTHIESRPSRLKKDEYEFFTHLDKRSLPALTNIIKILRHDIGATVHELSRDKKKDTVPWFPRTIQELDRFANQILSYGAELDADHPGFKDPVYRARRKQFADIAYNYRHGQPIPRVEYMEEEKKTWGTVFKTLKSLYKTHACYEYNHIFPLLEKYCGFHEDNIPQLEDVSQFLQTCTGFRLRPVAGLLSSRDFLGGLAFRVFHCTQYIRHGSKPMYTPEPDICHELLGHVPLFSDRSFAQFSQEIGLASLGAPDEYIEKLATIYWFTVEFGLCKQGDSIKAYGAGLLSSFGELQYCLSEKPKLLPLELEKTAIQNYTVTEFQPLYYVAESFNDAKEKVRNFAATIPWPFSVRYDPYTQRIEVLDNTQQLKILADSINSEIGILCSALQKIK
# Assay: Cell Based Phenylalanine Flux Assay
# Settings: A375 cells expressing human R408W PAH; 24 hrs compound incubation; 13C-Tyrosine by LC-MS; average where tested multiple times; read-out: AC50
row,Structure (SMILES),AC50
1,O=C(c1cnn2c(Br)cccc12)N1CCc2[nH]cnc2[C@H]1c1nc2ccc(F)cc2s1 [Example 1149],< 500 nM
2,"O=C(c1cnn2c(Br)cccc12)N1CCc2[nH]cnc2[C@@H]1c1nc2ccc(F)cc2s1 [Example 1150, (R)-(7-bromopyrazolo[1,5-a]pyridin-3-yl)(4-(6-fluorobenzo[d]thiazol-2-yl)-6,7-dihydro-1H-imidazo[4,5-c]pyridin-5(4H)-yl)methanone]",> 5000 nM
3,O=C(c1cnn2ccc(Cl)cc12)N1CCc2[nH]cnc2[C@H]1c1nc2ccc(F)cc2s1 [Example 1151],< 500 nM
4,"O=C(c1cnn2ccc(Cl)cc12)N1CCc2[nH]cnc2[C@@H]1c1nc2ccc(F)cc2s1 [Example 1152, (R)-(5-chloropyrazolo[1,5-a]pyridin-3-yl)(4-(6-fluorobenzo[d]thiazol-2-yl)-6,7-dihydro-1H-imidazo[4,5-c]pyridin-5(4H)-yl)methanone]",> 5000 nM
5,O=C(C1CCC1)N1CCc2[nH]cnc2[C@H]1c1nc2ccccc2s1 [Example 1153],< 500 nM
6,"O=C(C1CCC1)N1CCc2[nH]cnc2[C@@H]1c1nc2ccccc2s1 [Example 1154, (R)-(4-(benzo[d]thiazol-2-yl)-6,7-dihydro-1H-imidazo[4,5-c]pyridin-5(4H)-yl)(cyclobutyl)methanone]",> 5000 nM
7,"N#Cc1ccn2ncc(C(=O)N3CCc4[nH]cnc4[C@H]3c3nc4ccc(F)cc4s3)c2c1 [Example 1155, (S)-3-(4-(6-fluorobenzo[d]thiazol-2-yl)-4,5,6,7-tetrahydro-1H-imidazo[4,5-c]pyridine-5-carbonyl)pyrazolo[1,5-a]pyridine-5-carbonitrile]",500 to 1000 nM
8,"N#Cc1ccn2ncc(C(=O)N3CCc4[nH]cnc4[C@@H]3c3nc4ccc(F)cc4s3)c2c1 [Example 1156, (R)-3-(4-(6-fluorobenzo[d]thiazol-2-yl)-4,5,6,7-tetrahydro-1H-imidazo[4,5-c]pyridine-5-carbonyl)pyrazolo[1,5-a]pyridine-5-carbonitrile]",> 5000 nM
9,"O=C(c1ncn2ccccc12)N1CCc2[nH]cnc2[C@@H]1c1nc2cc(F)ccc2s1 [Example 1158, (R)-(4-(5-fluorobenzo[d]thiazol-2-yl)-6,7-dihydro-1H-imidazo[4,5-c]pyridin-5(4H)-yl)(imidazo[1,5-a]pyridin-1-yl)methanone]",> 5000 nM
10,"N#Cc1ccn2ncc(C(=O)N3CCc4[nH]cnc4[C@@H]3c3nc4cc(F)ccc4s3)c2c1 [Example 1159, (R)-3-(4-(5-fluorobenzo[d]thiazol-2-yl)-4,5,6,7-tetrahydro-1H-imidazo[4,5-c]pyridine-5-carbonyl)pyrazolo[1,5-a]pyridine-5-carbonitrile]",> 5000 nM
11,"N#Cc1ccn2ncc(C(=O)N3CCc4[nH]cnc4[C@H]3c3nc4cc(F)ccc4s3)c2c1 [Example 1160, (S)-3-(4-(5-fluorobenzo[d]thiazol-2-yl)-4,5,6,7-tetrahydro-1H-imidazo[4,5-c]pyridine-5-carbonyl)pyrazolo[1,5-a]pyridine-5-carbonitrile]",500 to 1000 nM
12,Cc1ncoc1C(=O)N1CCc2[nH]cnc2[C@H]1c1nc2ccccc2s1 [Example 1161],< 500 nM
13,"Cc1ncoc1C(=O)N1CCc2[nH]cnc2[C@@H]1c1nc2ccccc2s1 [Example 1162, (R)-(4-(benzo[d]thiazol-2-yl)-6,7-dihydro-1H-imidazo[4,5-c]pyridin-5(4H)-yl)(4-methyloxazol-5-yl)methanone]",1000 to 5000 nM
14,Cc1nc(C)c(C(=O)N2CCc3[nH]cnc3[C@H]2c2nc3ccccc3s2)o1 [Example 1163],< 500 nM
15,"Cc1nc(C)c(C(=O)N2CCc3[nH]cnc3[C@@H]2c2nc3ccccc3s2)o1 [Example 1164, (R)-(4-(benzo[d]thiazol-2-yl)-6,7-dihydro-1H-imidazo[4,5-c]pyridin-5(4H)-yl)(2,4-dimethyloxazol-5-yl)methanone]",> 5000 nM
16,Cc1nn2ccccc2c1C(=O)N1CCc2[nH]cnc2[C@H]1c1nc2ccccc2s1 [Example 1165],< 500 nM
17,"Cc1nn2ccccc2c1C(=O)N1CCc2[nH]cnc2[C@@H]1c1nc2ccccc2s1 [Example 1166, (R)-(4-(benzo[d]thiazol-2-yl)-6,7-dihydro-1H-imidazo[4,5-c]pyridin-5(4H)-yl)(2-methylpyrazolo[1,5-a]pyridin-3-yl)methanone]",500 to 1000 nM
18,O=C(c1cnn2ccc(Cl)cc12)N1CCc2[nH]cnc2[C@H]1c1nc2cc(F)ccc2s1 [Example 1167],500 to 1000 nM
19,"O=C(c1cnn2ccc(Cl)cc12)N1CCc2[nH]cnc2[C@@H]1c1nc2cc(F)ccc2s1 [Example 1168, (R)-(5-chloropyrazolo[1,5-a]pyridin-3-yl)(4-(5-fluorobenzo[d]thiazol-2-yl)-6,7-dihydro-1H-imidazo[4,5-c]pyridin-5(4H)-yl)methanone]",1000 to 5000 nM

row,Structure (SMILES),AC50
1,"O=C(c1cnn2ccc(F)cc12)N1CCc2[nH]cnc2[C@@H]1c1nc2c(F)cccc2s1 [Example 1169, (R)-(4-(4-fluorobenzo[d]thiazol-2-yl)-6,7-dihydro-1H-imidazo[4,5-c]pyridin-5(4H)-yl)(5-fluoropyrazolo[1,5-a]pyridin-3-yl)methanone]",1000 to 5000 nM
2,"O=C(c1cnn2ccc(F)cc12)N1CCc2[nH]cnc2[C@H]1c1nc2c(F)cccc2s1 [Example 1170, (S)-(4-(4-fluorobenzo[d]thiazol-2-yl)-6,7-dihydro-1H-imidazo[4,5-c]pyridin-5(4H)-yl)(5-fluoropyrazolo[1,5-a]pyridin-3-yl)methanone]",500 to 1000 nM
3,O=C(c1cnn2ccc(Br)cc12)N1CCc2[nH]cnc2[C@H]1c1nc2c(F)cccc2s1 [Example 1171],< 500 nM
4,"O=C(c1cnn2ccc(Br)cc12)N1CCc2[nH]cnc2[C@@H]1c1nc2c(F)cccc2s1 [Example 1172, (R)-(5-bromopyrazolo[1,5-a]pyridin-3-yl)(4-(4-fluorobenzo[d]thiazol-2-yl)-6,7-dihydro-1H-imidazo[4,5-c]pyridin-5(4H)-yl)methanone]",500 to 1000 nM
5,"Cc1ccc2c(C(=O)N3CCc4[nH]cnc4[C@H]3c3nc4c(F)cccc4s3)cnn2c1 [Example 1173, (S)-(4-(4-fluorobenzo[d]thiazol-2-yl)-6,7-dihydro-1H-imidazo[4,5-c]pyridin-5(4H)-yl)(6-methylpyrazolo[1,5-a]pyridin-3-yl)methanone]",500 to 1000 nM
6,"Cc1ccc2c(C(=O)N3CCc4[nH]cnc4[C@@H]3c3nc4c(F)cccc4s3)cnn2c1 [Example 1174, (R)-(4-(4-fluorobenzo[d]thiazol-2-yl)-6,7-dihydro-1H-imidazo[4,5-c]pyridin-5(4H)-yl)(6-methylpyrazolo[1,5-a]pyridin-3-yl)methanone]",1000 to 5000 nM
7,"O=C(Cc1nccs1)N1CCc2[nH]cnc2[C@@H]1c1nc2cccc(Br)c2s1 [Example 1175, (R)-1-(4-(7-bromobenzo[d]thiazol-2-yl)-6,7-dihydro-1H-imidazo[4,5-c]pyridin-5(4H)-yl)-2-(thiazol-2-yl)ethanone]",1000 to 5000 nM
8,"O=C(Cc1nccs1)N1CCc2[nH]cnc2[C@H]1c1nc2cccc(Br)c2s1 [Example 1176, (S)-1-(4-(7-bromobenzo[d]thiazol-2-yl)-6,7-dihydro-1H-imidazo[4,5-c]pyridin-5(4H)-yl)-2-(thiazol-2-yl)ethanone]",500 to 1000 nM
9,Cc1nc(C)c(C(=O)N2CCc3[nH]cnc3[C@H]2c2nc3ccccc3s2)s1 [Example 1177],500 to 1000 nM
10,"Cc1nc(C)c(C(=O)N2CCc3[nH]cnc3[C@@H]2c2nc3ccccc3s2)s1 [Example 1178, (R)-(4-(benzo[d]thiazol-2-yl)-6,7-dihydro-1H-imidazo[4,5-c]pyridin-5(4H)-yl)(2,4-dimethylthiazol-5-yl)methanone]",> 5000 nM
11,O=C(c1cnc(C2CC2)s1)N1CCc2[nH]cnc2[C@H]1c1nc2ccccc2s1 [Example 1179],< 500 nM
12,"O=C(c1cnc(C2CC2)s1)N1CCc2[nH]cnc2[C@@H]1c1nc2ccccc2s1 [Example 1180, (R)-(4-(benzo[d]thiazol-2-yl)-6,7-dihydro-1H-imidazo[4,5-c]pyridin-5(4H)-yl)(2-cyclopropylthiazol-5-yl)methanone]",1000 to 5000 nM
13,O=C(c1cnc(C(F)(F)F)s1)N1CCc2[nH]cnc2[C@H]1c1nc2ccccc2s1 [Example 1181],500 to 1000 nM
14,"O=C(c1cnc(C(F)(F)F)s1)N1CCc2[nH]cnc2[C@@H]1c1nc2ccccc2s1 [Example 1182, (R)-(4-(benzo[d]thiazol-2-yl)-6,7-dihydro-1H-imidazo[4,5-c]pyridin-5(4H)-yl)(2-(trifluoromethyl)thiazol-5-yl)methanone]",1000 to 5000 nM
15,O=C(c1cnc(NC2CC2)s1)N1CCc2[nH]cnc2[C@H]1c1nc2ccccc2s1 [Example 1183],< 500 nM
16,"O=C(c1cnc(NC2CC2)s1)N1CCc2[nH]cnc2[C@@H]1c1nc2ccccc2s1 [Example 1184, (R)-(4-(benzo[d]thiazol-2-yl)-6,7-dihydro-1H-imidazo[4,5-c]pyridin-5(4H)-yl)(2-(cyclopropylamino)thiazol-5-yl)methanone]",1000 to 5000 nM
17,COCc1ncc(C(=O)N2CCc3[nH]cnc3[C@H]2c2nc3ccccc3s2)s1 [Example 1185],500 to 1000 nM
18,"COCc1ncc(C(=O)N2CCc3[nH]cnc3[C@@H]2c2nc3ccccc3s2)s1 [Example 1186, (R)-(4-(benzo[d]thiazol-2-yl)-6,7-dihydro-1H-imidazo[4,5-c]pyridin-5(4H)-yl)(2-(methoxymethyl)thiazol-5-yl)methanone]",1000 to 5000 nM
19,O=C(c1cnc(C2CC2)o1)N1CCc2[nH]cnc2[C@H]1c1nc2ccccc2s1 [Example 1187],500 to 1000 nM
